# From ChEMBL document CHEMBL1201862, “PubChem BioAssay data set” (2004)
#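 Tested at 5 concentrations; 48 h exposure; 96-well plates; endpoints linearly interpolated, else capped at highest concentration. GI50 = concentration required for 50% inhibition of growth.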 The source made the active and inactive calls. Rule as the data show it: active = GI50 up to about 1.1 µM and inactive = higher.
# Columns and labels:
# Assay in all cases: NCI anticancer screen, dose series, 48 h
# SF-268 = test system: SF-268
# NCI/ADR-RES = test system: NCI/ADR-RES
# HCC 2998 = test system: HCC 2998
# HCT-116 = test system: HCT-116
# EKVX = test system: EKVX
# OVCAR-3 = test system: OVCAR-3
# HT-29 = test system: HT-29
# HCT-15 = test system: HCT-15
# SK-MEL-28 = test system: SK-MEL-28
# MDA-MB-435 = test system: MDA-MB-435
# PC-3 = test system: PC-3
# K562 = test system: K562
# Malme-3M = test system: Malme-3M
# NCI-H522 = test system: NCI-H522
# NCI-H226 = test system: NCI-H226
# SK-MEL-5 = test system: SK-MEL-5
# NCI-H23 = test system: NCI-H23
# DU-145 = test system: DU-145
# SK-MEL-2 = test system: SK-MEL-2
# SW-620 = test system: SW-620
SMILES,GI50 (SF-268),GI50 (NCI/ADR-RES),GI50 (HCC 2998),GI50 (HCT-116),GI50 (EKVX),GI50 (OVCAR-3),GI50 (HT-29),GI50 (HCT-15),GI50 (SK-MEL-28),GI50 (MDA-MB-435),GI50 (PC-3),GI50 (K562),GI50 (Malme-3M),GI50 (NCI-H522),GI50 (NCI-H226),GI50 (SK-MEL-5),GI50 (NCI-H23),GI50 (DU-145),GI50 (SK-MEL-2),GI50 (SW-620)
CCCCCCCCCCCCCCCC(=O)OC1C(O)C(O)C(O)C(O)C12CO2 (stereo not given),34 µM (inactive),46 µM (inactive),71.8 µM (inactive),24.3 µM (inactive),22.7 µM (inactive),24.6 µM (inactive),45.4 µM (inactive),24.5 µM,> 100 µM (inactive),48.5 µM (inactive),20.9 µM (inactive),24.7 µM (inactive),> 100 µM (inactive),33 µM (inactive),42.8 µM (inactive),> 100 µM (inactive),49.2 µM (inactive),88.5 µM (inactive),37.3 µM (inactive),14.7 µM (inactive)
CCc1nc2ccc(/N=N/N(C)C)cc2[nH]1,> 100 µM (inactive),> 100 µM (inactive),> 100 µM (inactive),> 100 µM (inactive),> 100 µM (inactive),> 100 µM (inactive),> 100 µM (inactive),> 100 µM,> 100 µM (inactive),> 100 µM (inactive),> 100 µM (inactive),> 100 µM (inactive),> 100 µM (inactive),> 100 µM (inactive),> 100 µM (inactive),> 100 µM (inactive),> 100 µM (inactive),> 100 µM (inactive),> 100 µM (inactive),> 100 µM (inactive)
Cc1cccc2c(N)c3cccc(C(=O)NCC[N+](C)(C)Cc4ccc([N+](=O)[O-])n4C)c3nc12,8.47 µM (inactive),55.3 µM (inactive),10.6 µM (inactive),14.6 µM (inactive),27.6 µM (inactive),24.7 µM (inactive),9.33 µM (inactive),27.9 µM,43.8 µM (inactive),52 µM (inactive),24 µM (inactive),11.5 µM (inactive),15.2 µM (inactive),8.65 µM (inactive),6.5 µM (inactive),21.7 µM (inactive),13.2 µM (inactive),18.8 µM (inactive),67.6 µM (inactive),18.6 µM (inactive)
CC(C)(C)OC(=O)N(O)[C@@H]1CC[C@H](n2cnc3c(N)ncnc32)C1,> 100 µM (inactive),> 100 µM (inactive),> 100 µM (inactive),> 100 µM (inactive),> 100 µM (inactive),> 100 µM (inactive),> 100 µM (inactive),> 100 µM,> 100 µM (inactive),> 100 µM (inactive),> 100 µM (inactive),> 100 µM (inactive),> 100 µM (inactive),> 100 µM (inactive),> 100 µM (inactive),> 100 µM (inactive),> 100 µM (inactive),> 100 µM (inactive),> 100 µM (inactive),> 100 µM (inactive)
